Where a name gives a salt, the structure may show the parent alone.

This data set has as its system Gastric lesions induced by the ethanolamine salt of piroxicam. In words: Protective effect of inositol on piroxicam-induced gastric lesions in rats. The settings on record: for Significance p < 0.05: two-tailed Student's t-test; for Lesions/Rat (X +/- SE): mean (SE). The data set is classed as in vivo, rat (CD strain, Sprague-Dawley). The procedure: Adult male "specific pathogen free" rats weighing 140-160 grams of the CD strain (Sprague-Dawley) were obtained from Charles River Breeding Laboratories (Kingston, N.Y.). The animals were acclimated for approximately one week and tested when they reached a body weight of 200-225 grams. The rats were fasted for 16 hours and randomized into groups consisting of 8 to 20 animals which were normalized with regard to their average body weight.
Gastric ulcers were induced in the animals by orally dosing them with a single 120 mg/kg dose of piroxicam (ethanolamine salt) in 2 ml. of aqueous 0.1% methylcellulose (pH=6.8). Those animals receiving a second medicinal agent separately received the second drug in an additional 2 ml. of the same medium at about the same time. Six and one-half hours later, the animals were sacrificed by cervical dislocation and autopsied. The stomachs were surgically removed, dissected along the greater curvature and rinsed with cold water. The stomachs were individually scored for both linear and punctate lesions. The total number of lesions was used for scoring purposes. The data obtained from each group of rats were analyzed after calculation of the mean number +/- the standard error of total gastric lesions. The values obtained were also compared to the controls which received only piroxicam by the two-tailed Student's T-Test for nonpaired data.

Usually ED50 stands for the dose at which the effect has come halfway, by size or by number of responders. For `O[C@H]1[C@H](O)[C@@H](O)[C@H](O)[C@@H](O)[C@H]1O` [Inositol, cis-1,2,3,4-trans-4,6-cyclohexanehexol], under “Rattus norvegicus, 6.5 h, oral, linear regression analysis, lesions induced by 120 mg/kg piroxicam ethanolamine salt, read-out: ED50 (dose of inositol required to inhibit 50% of control gastric lesion)”, the ED50 turned out to be 85 mg/kg. Besides, the “Reduction of piroxicam-induced gastric lesions” value (healthy fasted rat, statement in words) is “significantly reduces”. The “Significance p < 0.05” value is “+ (p < 0.05)” (inositol 10 mg/kg oral vs piroxicam-only control), “+ (p < 0.05)” (inositol 33 mg/kg oral vs piroxicam-only control), “+ (p < 0.05)” (inositol 100 mg/kg oral vs piroxicam-only control) and “+ (p < 0.05)” (inositol 333 mg/kg oral vs piroxicam-only control). Further, the “Lesions/Rat (X +/- SE)” value is recorded as 4.7 (0.9) Lesions/Rat (inositol 10 mg/kg oral, with 120 mg/kg oral piroxicam ethanolamine salt, fasted male rats, 6.5 h, 40 rats); 5.2 (0.7) Lesions/Rat (inositol 33 mg/kg oral, with 120 mg/kg oral piroxicam ethanolamine salt, fasted male rats, 6.5 h, 40 rats); 3.6 (0.6) Lesions/Rat (inositol 100 mg/kg oral, with 120 mg/kg oral piroxicam ethanolamine salt, fasted male rats, 6.5 h, 40 rats); 3.0 (0.8) Lesions/Rat (inositol 333 mg/kg oral, with 120 mg/kg oral piroxicam ethanolamine salt, fasted male rats, 6.5 h, 40 rats).
Regarding `CN1C(C(=O)Nc2ccccn2)=C(O)c2ccccc2S1(=O)=O` [ethanolamine salt of piroxicam], under “control: 120 mg/kg oral piroxicam ethanolamine salt alone, inositol 0 mg/kg, 6.5 h, 30 rats”, the “Lesions/Rat (X +/- SE)” value was 7.5 (0.8) Lesions/Rat.

The record behind these values is patent US4559326A, “Antiinflammatory compositions and methods” (Pfizer Inc., priority 1985, dated 1985).
